ChEMBL document CHEMBL1138878 (J Med Chem, 2006)
Calls of active or inactive are those of the source. The rule behind the calls is not given here.

Experiments:
HEK-293T [1] = test: Loss in viability of human HEK293T cells at 15 uM after 7 hrs relative to control; assay type: functional, cell-based
HEK-293T [2] = test: Inhibition of TNF-alpha-induced NF-kappaB activation in HEK293T cells; assay type: functional, cell-based; details: Homo sapiens
[3] = test system: Radical scavenging activity; test: Antioxidant activity measured as ability to reduce ferric tripyridyltriazine complex at 15 uM by FRAP assay; assay type: functional
[4] = test system: Radical scavenging activity; test: Antioxidant activity measured as ability to react with ABTS radical cation at 15 uM by TRAP assay; assay type: functional
BV-2 [5] = test: Suppression of LPS-stimulated COX2 mRNA expression in mouse BV2 cells at 4 uM; assay type: functional
BV-2 [6] = test: Suppression of LPS-stimulated COX2 mRNA expression in mouse BV2 cells at 20 uM; assay type: functional, cell-based
BV-2 [7] = test: Suppression of LPS-stimulated COX2 mRNA expression in mouse BV2 cells at 0.15 uM; assay type: functional, cell-based

Row | SMILES | Activity (HEK-293T [1]) | IC50 (HEK-293T [2]) [nM] | Activity [3] | Activity [4] | Activity (BV-2 [5]) [%] | Activity (BV-2 [6]) | Activity (BV-2 [7])
1 | COc1ccc(/C=C/c2cccc(OC)c2)cc1 | inactive | 600 | inactive | inactive |  |  | 
2 | Oc1ccc(/C=C/c2cc(O)cc(O)c2)cc1 [RESVERATROL] | inactive | 20000 | Active | Active | 50 | Active | 
3 | COc1ccc(/C=C/c2cccc(Cl)c2)cc1 | inactive | 1000 | inactive | inactive |  |  | 
4 | COc1ccc(/C=C/c2cccc(O)c2O)cc1 | inactive |  | Active | Active |  |  | 
5 | COc1ccc(/C=C/c2cccc(C)c2)cc1 | inactive | 800 | inactive | inactive |  |  | 
6 | CCOc1ccc(/C=C/c2ccccc2)cc1 | inactive |  | inactive | inactive |  |  | 
7 | COc1ccc(/C=C/c2ccccc2Cl)cc1 | inactive | 1500 | inactive | inactive |  |  | 
8 | CN(C)c1ccc(/C=C/c2ccccc2)cc1 | inactive | 150 | Active | Active |  |  | Active
9 | COc1ccc(/C=C/c2ccccc2F)cc1 | inactive | 150 | inactive | inactive |  |  | Active
10 | COc1ccc(/C=C/c2ccc(O)c(O)c2)cc1 | inactive | 600 | Active | Active |  |  | 
11 | C(=C\c1ccc2ccccc2c1)/c1ccccc1 | inactive |  | inactive | inactive |  |  | 
12 | COc1ccc(/C=C/c2ccc(C)cc2)cc1 | inactive | 900 | inactive | inactive |  |  | 
13 | COc1ccc(/C=C/c2cccc(F)c2)cc1 | inactive |  | inactive | inactive |  |  | 
